According to the supplement of paper PMC13380429:

Assays:
Conditions in all cases: 72 h
Caco-2 [1] = experiment: relative viability EC50 (midpoint between 100% and the lowest measured viability); higher = less toxic
HepG2 [2] = experiment: as above
Vero E6 [3] = experiment: as above
U2OS [4] = experiment: as above
Calu-3 [5] = experiment: as above
Caco-2 [6] = experiment: drug sensitivity score (DSS) for viability; higher = more toxic; extreme values may be limits of the assay
HepG2 [7] = experiment: as above
Vero E6 [8] = experiment: as above
U2OS [9] = experiment: as above
Calu-3 [10] = experiment: as above
Caco-2 [11] = experiment: cell viability relative to DMSO; higher = less toxic
HepG2 [12] = experiment: as above
Vero E6 [13] = experiment: as above
U2OS [14] = experiment: as above
Calu-3 [15] = experiment: as above

SMILES	relative viability EC50 (Caco-2 [1]) [µM]	relative viability EC50 (HepG2 [2]) [µM]	relative viability EC50 (Vero E6 [3]) [µM]	relative viability EC50 (U2OS [4]) [µM]	relative viability EC50 (Calu-3 [5]) [µM]	drug sensitivity score (Caco-2 [6])	drug sensitivity score (HepG2 [7])	drug sensitivity score (Vero E6 [8])	drug sensitivity score (U2OS [9])	drug sensitivity score (Calu-3 [10])	cell viability (Caco-2 [11]; 1 nM) [%]	cell viability (Caco-2 [11]; 10 nM) [%]	cell viability (Caco-2 [11]; 100 nM) [%]	cell viability (Caco-2 [11]; 1000 nM) [%]	cell viability (Caco-2 [11]; 10000 nM) [%]	cell viability (HepG2 [12]; 1 nM) [%]	cell viability (HepG2 [12]; 10 nM) [%]	cell viability (HepG2 [12]; 100 nM) [%]	cell viability (HepG2 [12]; 1000 nM) [%]	cell viability (HepG2 [12]; 10000 nM) [%]	cell viability (Vero E6 [13]; 1 nM) [%]	cell viability (Vero E6 [13]; 10 nM) [%]	cell viability (Vero E6 [13]; 100 nM) [%]	cell viability (Vero E6 [13]; 1000 nM) [%]	cell viability (Vero E6 [13]; 10000 nM) [%]	cell viability (U2OS [14]; 1 nM) [%]	cell viability (U2OS [14]; 10 nM) [%]	cell viability (U2OS [14]; 100 nM) [%]	cell viability (U2OS [14]; 1000 nM) [%]	cell viability (U2OS [14]; 10000 nM) [%]	cell viability (Calu-3 [15]; 1 nM) [%]	cell viability (Calu-3 [15]; 10 nM) [%]	cell viability (Calu-3 [15]; 100 nM) [%]	cell viability (Calu-3 [15]; 1000 nM) [%]	cell viability (Calu-3 [15]; 10000 nM) [%]
CC[C@H](C)[C@H](N)C1=N[C@H](C(=O)N[C@@H](CC(C)C)C(=O)N[C@H](CCC(=O)[O-])C(=O)N[C@H](C(=O)N[C@H]2CCCCNC(=O)[C@H](CC(N)=O)NC(=O)[C@@H](CC(=O)[O-])NC(=O)[C@H](Cc3cnc[nH]3)NC(=O)[C@@H](Cc3ccccc3)NC(=O)[C@H]([C@@H](C)CC)NC(=O)[C@@H](CCCN)NC2=O)[C@@H](C)CC)CS1.[Zn+2] [bacitracin-zinc]	> 10	> 10	> 10	> 10	> 10	0	0	0	0	0	93.8	90.5	104	104	110	96.9	100	110	93.6	111	96.2	89.9	100	95.5	112	92.8	99.4	96.4	103	104	93.7	106	112	99.9	106
CCC(=O)OCC(=O)[C@@]1(OC(=O)CC)[C@@H](C)C[C@H]2[C@@H]3CCC4=CC(=O)C=C[C@]4(C)[C@@]3(Cl)[C@@H](O)C[C@@]21C [beclomethasone-dipropionate]	> 10	> 10	> 10	> 10	> 10	0	2.6	0	0	0	97.1	97.3	94.3	104	111	97.3	95.7	99.2	81.3	80.2	95.8	90.6	102	80.1	99.5	96.8	102	95.9	99.1	97.2	104	106	97	101	88.6
C/C(=C(\CCOP(=O)(O)O)SC(=O)c1ccccc1)N(C=O)Cc1cnc(C)nc1N [benfotiamine]	> 10	> 10	> 10	> 10	> 10	0	0	0	0	0	99.7	101	91	94.6	89.1	95.1	92.4	88.4	92.7	97	100	98.3	98.9	97.4	96.2	99.1	101	95.7	98.5	99.5	97.2	96.9	95.8	95.4	92.1
